Test results published in article PMC6268855, “New Trifluoromethyl Triazolopyrimidines as Anti-Plasmodiumfalciparum Agents” (Molecules, 2012).

Legend:
Assay type in all cases: cell-based
[1] = system: Plasmodium falciparum chloroquine-resistant W2 clone; experiment: anti-HRP2 test on P. falciparum-infected erythrocytes; conditions: for IC50: Plasmodium falciparum, read-out: IC50 Plasmodium Falciparum Anti-HRP2; for activity class against P. falciparum: class by IC50
Experimental: (§1) Briefly, the parasites were kept as described at 37 °C in human erythrocytes (A^+) in complete medium (RPMI 1640 supplemented with 10% human sera blood group A^+, 2% glutamine, and 7.5% NaHCO3) either in Petri dishes in a candle jar or in 25-cm culture flasks in an environment containing a gas mixture atmosphere (3% O2, 5% CO2 and 91% N2). Before testing, the ring-stage parasites were synchronized by sorbitol; the suspension was adjusted for parasitemia and hematocrit as described below for each test used.
(§2) The effects of compounds against the W2 P. falciparum blood cultures were evaluated through incorporation of ^3H hypoxanthine (Perkin Elmer, Waltham, MA, USA) by the parasites. Alternatively, compound effects were also examined using monoclonal antibodies to a commercially available parasite histidine and alanine-rich protein (HRP2) (MPFM ICLLAB-55A®, MPFG55P ICLLAB®, Immunology Consultants Laboratory Inc. (ICL), Portland, OR, USA), as described previously. The [3H]-hypoxanthine assay was performed with 1% of parasitemia and 1% of hematocrit, and the level of isotope incorporation was read in a beta-counter (Perkin Elmer). The anti-HRP2 test was performed with 0.05% parasitemia and 1.5% hematocrit, and the quantification of protein was determined using a specific read at 450 nm in a spectrophotometer (SpectraMax340PC^384, Molecular Devices, Sunnyvale, CA, USA). Drug activities were expressed by the half-maximal inhibitory dose (IC50) compared to the drug-free controls and estimated using the curve-fitting software Origin 8.0 (OriginLab Corporation, Northampton, MA, USA).

[2] = system: Plasmodium falciparum chloroquine-resistant W2 clone; experiment: [3H]-hypoxanthine incorporation assay on P. falciparum-infected erythrocytes; conditions: read-out: IC50 Plasmodium Falciparum Hypoxanthine
Experimental: as §1, §2

[3] = system: human hepatoma cell line (HepG2); conditions: MTT, 24 h incubation
Experimental: For in vitro cytotoxicity experiments, the cell monolayer was trypsinized, washed with culture medium, distributed in a flat-bottomed 96-well plate (5 × 10^3 cells/well), and finally incubated for 18 h at 37 °C for cell adherence.
For cytotoxicity testing, we used the (3-(4,5-dimethylthiazol-2-yl)-2,5-diphenyltetrazolium bromide (MTT) assay, performed as described in the literature. The HepG2 cell line was incubated with 20 µL of the compounds in different concentrations (200–25 µg/mL) for 24 h in an atmosphere of 5% CO2 at 37 °C.
For the MTT assay, which evaluates mitochondrial viability, 20 µL of MTT solution (5 mg/mL) was added, and the plates were incubated for an additional 3 h. After incubation, the supernatant was carefully removed from the wells, followed by addition of 100 µL DMSO with thorough mixing. Optical densities at 570 and 630 nm (background) were determined by an ELISA reader.
Cell viability was expressed as the percentage of control absorbance obtained in untreated cells after subtracting the absorbance from appropriate background. Lastly, the minimum lethal dose for 50% of the cells (MLD50) was determined as previously described in the literature. The ratio between MLD50 and drug activity (IC50) in vitro was used to determine the selectivity index (SI).

[4] = Erythrocyte, W2 clone, 0.05% parasitemia, 1.5% hematocrit
[5] = Erythrocyte, W2 clone, 1% parasitemia, 1% hematocrit

Compound	MDL50 HepG2 [3]	IC50 [1, 4]	IC50 [2, 5]	IC50 ([1]; W2, Erythrocyte)	IC50 ([2]; W2, Erythrocyte)	activity class against P. falciparum ([1]; W2 clone)
CCN(CC)CCCC(C)Nc1ccnc2cc(Cl)ccc12 (stereo not shown) [Chloroquine, reference compound]	490 µM	–	–	0.22 µM	0.23 µM	–
Cc1cc(Nc2c(F)cccc2F)n2nc(C(F)(F)F)nc2n1 [Compound 10, 7-(2,6-Difluorophenylamine)-5-methyl-2-(trifluoromethyl)[1,2,4]triazolo[1,5-a]pyrimidine]	337 µM	> 69.9 µM	> 149 µM	–	–	Inactive
Cc1cc(Nc2cc(Cl)cc(Cl)c2)n2nc(C)nc2n1 [Compound 15, 7-(3,5-Dichlorophenylamine)-2,5-dimethyl[1,2,4]triazolo[1,5-a]pyrimidine]	415 µM	> 162 µM	149 µM	–	–	Inactive
FC(F)(F)c1cc(Nc2cc(Cl)cc(Cl)c2)n2nc(C(F)(F)F)nc2n1 [Compound 17, 7-(3,5-Dichlorophenylamine)-2,5-bis(trifluoromethyl)[1,2,4]triazolo[1,5-a]pyrimidine]	269 µM	12.3 µM	23.4 µM	–	–	–
Cc1cc(NC2CCCCC2)n2nc(C(F)(F)F)nc2n1 [Compound 18, 7-Cyclohexylamine-5-methyl-2-(trifluoromethyl)[1,2,4]triazolo[1,5-a]pyrimidine]	515 µM	8.69 ± 0.46 µM	10 µM	–	–	–
Cc1cc(N2CCOCC2)n2nc(C(F)(F)F)nc2n1 [Compound 19]	>697 µM	> 174 µM	> 174 µM	–	–	Inactive
Cc1cc(N2CCN(C)CC2)n2nc(C(F)(F)F)nc2n1 [Compound 20, 5-Methyl-7-(4-methylpiperazin-1-yl)-2-(trifluoromethyl)[1,2,4]triazolo[1,5-a]pyrimidine]	>666 µM	39 ± 17 µM	57 ± 13 µM	–	–	Inactive
Cc1cc(N2CCCC2)n2nc(C(F)(F)F)nc2n1 [Compound 21, 5-Methyl-7-(pyrrolidin-1-yl)-2-(trifluoromethyl)[1,2,4]triazolo[1,5-a]pyrimidine]	>738 µM	> 184 µM	> 184 µM	–	–	Inactive
Cc1cc(Nc2ccccn2)n2nc(C(F)(F)F)nc2n1 [Compound 22, 5-Methyl-7-(pyridin-2-ylamine)-2-(trifluoromethyl)[1,2,4]triazolo[1,5-a]pyrimidine]	394 µM	> 156 µM	> 170 µM	–	–	Inactive
Cc1cc(Nc2nc(C(F)(F)F)n[nH]2)n2nc(C(F)(F)F)nc2n1 [Compound 23, 5-Methyl-2-(trifluoromethyl)-7-(5-(trifluoromethyl)-3-amine-4H-1,2,4-triazolyl)[1,2,4]triazolo[1,5-a]pyrimidine]	<71 µM	36.9 ± 11.4 µM	31.2 ± 17 µM	–	–	Inactive
Cc1cc(-n2ccnc2)n2nc(C(F)(F)F)nc2n1 [Compound 25, 7-(1H-Imidazol-1-yl)-5-methyl-2-(trifluoromethyl)[1,2,4]triazolo[1,5-a]pyrimidine]	<93 µM	21 ± 2 µM	15 ± 0.7 µM	–	–	–
Cc1cc(-n2cncn2)n2nc(C(F)(F)F)nc2n1 [Compound 26, 5-Methyl-7-(1H-1,2,4-triazol-1-yl)-2-(trifluoromethyl)[1,2,4]triazolo[1,5-a]pyrimidine]	<93 µM	29.7 µM	33.5 ± 14.9 µM	–	–	Inactive
Cc1cc(-n2cccc2)n2nc(C(F)(F)F)nc2n1 [Compound 27, 5-Methyl-7-(1H-pyrrol-1-yl)-2-(trifluoromethyl)[1,2,4]triazolo[1,5-a]pyrimidine]	>749 µM	97.4 ± 22.5 µM	78.7 ± 7.49 µM	–	–	Inactive
CCN(CC)CCCC(C)Nc1cc(C)nc2ncnn12 (stereo not shown) [Compound 28, 5-Methyl-7-N'-(N,N-diethylpentane-1,4-diamine)[1,2,4]triazolo[1,5-a]pyrimidine]	>689 µM	> 172 µM	> 172 µM	–	–	Inactive

Continued, in another order:

MDL50 HepG2 [3]	IC50 [1, 4]	IC50 [2, 5]	Compound	IC50 ([1]; W2, Erythrocyte)	IC50 ([2]; W2, Erythrocyte)	activity class against P. falciparum ([1]; W2 clone)
326 µM	2.2 µM	–	Cc1cc(Nc2cccc3ccccc23)n2nc(C(F)(F)F)nc2n1 [Compound 4, 5-Methyl-7-(naphthalen-1-ylamine)-2-(trifluoromethyl)[1,2,4]triazolo[1,5-a]pyrimidine]	–	–	–
425 µM	0.023 ± 0.002 µM	–	Cc1cc(Nc2ccc3ccccc3c2)n2nc(C(F)(F)F)nc2n1 [Compound 5, 5-Methyl-7-(naphthalen-2-ylamine)-2-(trifluoromethyl)[1,2,4]triazolo[1,5-a]pyrimidine]	–	–	–
>682 µM	3 ± 2 µM	10.2 ± 5 µM	Cc1cc(Nc2ccccc2)n2nc(C(F)(F)F)nc2n1 [Compound 6, 5-Methyl-7-phenylamine-2-(trifluoromethyl)[1,2,4]triazolo[1,5-a]pyrimidine]	–	–	–
373 µM	1.83 ± 1.1 µM	1.22 µM	Cc1cc(Nc2cccc(Cl)c2)n2nc(C(F)(F)F)nc2n1 [Compound 7, 7-(3-Chlorophenylamine)-5-methyl-2-(trifluoromethyl)[1,2,4]triazolo[1,5-a]pyrimidine]	–	–	–
>552 µM	0.55 ± 0.66 µM	0.11 ± 0.05 µM	Cc1cc(Nc2ccc(Cl)c(Cl)c2)n2nc(C(F)(F)F)nc2n1 [Compound 8, 7-(3,4-Dichlorophenylamine)-5-methyl-2-(trifluoromethyl)[1,2,4]triazolo[1,5-a]pyrimidine]	–	–	–
320 µM	2.7 ± 2.21 µM	3.32 ± 1.1 µM	Cc1cc(Nc2ccc(Cl)cc2Cl)n2nc(C(F)(F)F)nc2n1 [Compound 9, 7-(2,4-Dichlorophenylamine)-5-methyl-2-(trifluoromethyl)[1,2,4]triazolo[1,5-a]pyrimidine]	–	–	–
>619 µM	0.4 ± 0.09 µM	1.5 ± 1.2 µM	COc1ccc(Nc2cc(C)nc3nc(C(F)(F)F)nn23)cc1 [Compound 11, 7-(4-Methoxyphenylamine)-5-methyl-2-(trifluoromethyl)[1,2,4]triazolo[1,5-a]pyrimidine]	–	–	–
498 µM	2.5 ± 0.05 µM	0.36 ± 0.1 µM	COc1cc(Nc2cc(C)nc3nc(C(F)(F)F)nn23)cc(OC)c1 [Compound 12, 7-(3,5-Dimethoxyphenylamine)-5-methyl-2-(trifluoromethyl)[1,2,4]triazolo[1,5-a]pyrimidine]	–	–	–
320 µM	1.47 ± 0.11 µM	0.83 ± 0.58 µM	Cc1cc(Nc2cc(Cl)cc(Cl)c2)n2nc(C(F)(F)F)nc2n1 [Compound 13, 7-(3,5-Dichlorophenylamine)-5-methyl-2-(trifluoromethyl)[1,2,4]triazolo[1,5-a]pyrimidine]	–	–	–
515 µM	3.84 ± 0.4 µM	15.1 ± 10 µM	COc1cc(Nc2cc(C)nc3nc(C)nn23)cc(OC)c1 [Compound 14, 7-(3,5-Dimethoxyphenylamine)-2,5-dimethyl[1,2,4]triazolo[1,5-a]pyrimidine]	–	–	–
446 µM	0.3 µM	0.4 ± 0.06 µM	Cc1cc(Nc2ccc(C(F)(F)F)cc2)n2nc(C)nc2n1 [Compound 16, 2,5-Dimethyl-7-(4-(trifluoromethyl)phenylamine)-[1,2,4]triazolo[1,5-a]pyrimidine]	–	–	–
>746 µM	2.1 µM	–	Cc1cc(-n2cccn2)n2nc(C(F)(F)F)nc2n1 [Compound 24, 5-Methyl-7-(1H-pyrazol-1-yl)-2-(trifluoromethyl)[1,2,4]triazolo[1,5-a]pyrimidine]	–	–	–
